Measurements reported in patent US10717716B2, “1,3,4-oxadiazole derivative compounds as histone deacetylase 6 inhibitor, and the pharmaceutical composition comprising the same” (Chong Kun Dang Pharmaceutical Corp., priority 2015, dated 2020).

Biological target: T1, human recombinant HDAC6 (Homo sapiens, UniProt Q9UBN7)
T1 construct: purchased Calbiochem 382180
T1 sequence (Q9UBN7 1-1215): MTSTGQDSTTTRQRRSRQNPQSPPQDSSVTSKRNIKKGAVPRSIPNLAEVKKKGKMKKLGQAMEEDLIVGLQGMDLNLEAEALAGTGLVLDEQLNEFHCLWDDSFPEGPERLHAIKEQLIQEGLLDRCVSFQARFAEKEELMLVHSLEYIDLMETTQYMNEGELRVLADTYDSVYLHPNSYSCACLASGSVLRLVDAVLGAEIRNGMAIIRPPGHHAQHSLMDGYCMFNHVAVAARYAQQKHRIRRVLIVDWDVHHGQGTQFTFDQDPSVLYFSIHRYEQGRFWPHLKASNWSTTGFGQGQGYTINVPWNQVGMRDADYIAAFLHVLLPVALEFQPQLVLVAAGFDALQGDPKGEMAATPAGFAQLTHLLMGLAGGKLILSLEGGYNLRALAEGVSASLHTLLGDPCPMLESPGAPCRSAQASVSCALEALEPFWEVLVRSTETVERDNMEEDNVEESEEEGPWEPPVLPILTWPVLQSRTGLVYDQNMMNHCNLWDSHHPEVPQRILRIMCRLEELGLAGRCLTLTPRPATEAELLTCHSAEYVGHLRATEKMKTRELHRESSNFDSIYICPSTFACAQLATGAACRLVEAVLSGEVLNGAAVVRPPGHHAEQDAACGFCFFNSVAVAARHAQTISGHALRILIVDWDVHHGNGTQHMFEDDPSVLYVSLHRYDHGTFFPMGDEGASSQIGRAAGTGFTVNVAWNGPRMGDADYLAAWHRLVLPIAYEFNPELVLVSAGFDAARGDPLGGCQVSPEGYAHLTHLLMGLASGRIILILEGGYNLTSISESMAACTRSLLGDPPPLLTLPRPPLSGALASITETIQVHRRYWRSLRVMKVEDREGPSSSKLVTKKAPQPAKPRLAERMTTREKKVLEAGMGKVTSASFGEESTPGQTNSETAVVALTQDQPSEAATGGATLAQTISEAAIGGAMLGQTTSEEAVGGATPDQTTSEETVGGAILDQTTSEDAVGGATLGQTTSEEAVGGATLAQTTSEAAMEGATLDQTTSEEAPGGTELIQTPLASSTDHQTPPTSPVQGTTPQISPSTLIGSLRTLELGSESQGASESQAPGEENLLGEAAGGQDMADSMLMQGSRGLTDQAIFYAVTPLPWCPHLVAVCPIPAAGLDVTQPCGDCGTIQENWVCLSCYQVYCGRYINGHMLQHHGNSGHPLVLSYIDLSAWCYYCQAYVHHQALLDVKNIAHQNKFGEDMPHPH
Experiment: HDAC6 enzyme activity inhibition assay (HDAC Fluorimetric Drug Discovery Kit)
Format: biochemical
Conditions: for HDAC6 selectivity (fold): HDAC6 over HDAC1; for IC50: human recombinant HDAC6, same protocol as HDAC1, read-out: HDAC6
How it was run: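 Human recombinant HDAC1 or HDAC6 (0.3 μg) reacted with 10 μM Fluor de Lys-SIRT1 substrate and 5-fold compound dilutions for 60 min at 30 °C. Developer II added for 30 min, fluorescence read at Ex 360/Em 460; IC50 calculated from the readings.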

| Structure (SMILES) | HDAC6 selectivity (fold) | IC50 |
| --- | --- | --- |
| O=C(N1CCS(=O)(=O)CC1)N(Cc1ccc(-c2nnc(C(F)(F)F)o2)cc1F)c1ccc(OC(F)(F)F)cc1 [Compound 21513, N-(2-fluoro-4-(5-(trifluoromethyl)-1,3,4-oxadiazol-2-yl)benzyl)-N-(4-(trifluoromethoxy)phenyl)thiomorpholine-4-carboxamide 1,1-dioxide] | 47 fold | 0.212 µM |
| CN1CCN(Cc2ccc(N(Cc3ccc(-c4nnc(C(F)(F)F)o4)cc3F)C(=O)N3CCS(=O)(=O)CC3)cc2)CC1 [Compound 21515, N-(2-fluoro-4-(5-(trifluoromethyl)-1,3,4-oxadiazol-2-yl)benzyl)-N-(4-((4-methylpiperazin-1-yl)methyl)phenyl)thiomorpholine-4-carboxamide 1,1-dioxide] | 115 fold | 0.087 µM |
| CN1CCN(Cc2ccc(N(Cc3ccc(-c4nnc(C(F)F)o4)cc3F)C(=O)N3CCS(=O)(=O)CC3)cc2)CC1 [Compound 21516, N-(4-(5-(difluoromethyl)-1,3,4-oxadiazol-2-yl)-2-fluorobenzyl)-N-(4-((4-methylpiperazin-1-yl)methyl)phenyl)thiomorpholine-4-carboxamide 1,1-dioxide] | 250 fold | 0.04 µM |
| O=C(N1CCS(=O)(=O)CC1)N(Cc1ccc(-c2nnc(C(F)F)o2)cc1F)c1ccc(-c2ccncc2)cc1 [Compound 21520, N-(4-(5-(difluoromethyl)-1,3,4-oxadiazol-2-yl)-2-fluorobenzyl)-N-(4-(pyridin-4-yl)phenyl)thiomorpholine-4-carboxamide 1,1-dioxide] | 159 fold | 0.063 µM |
| CN1CCN(C(=O)N(Cc2ccc(-c3nnc(C(F)F)o3)cn2)c2ccccc2)CC1 [Compound 21527, N-((5-(5-(difluoromethyl)-1,3,4-oxadiazol-2-yl)pyridin-2-yl)methyl)-4-methyl-N-phenylpiperazine-1-carboxamide] | 357 fold | 0.028 µM |
| O=C(N1CCS(=O)(=O)CC1)N(Cc1ccc(-c2nnc(C(F)(F)F)o2)cc1F)c1cccc(OC(F)(F)F)c1 [Compound 21528, N-(2-fluoro-4-(5-(trifluoromethyl)-1,3,4-oxadiazol-2-yl)benzyl)-N-(3-(trifluoromethoxy)phenyl)thiomorpholine-4-carboxamide 1,1-dioxide] | 47 fold | 0.214 µM |
| O=C(N1CCS(=O)(=O)CC1)N(Cc1ccc(-c2nnc(C(F)(F)F)o2)cc1F)c1ccc(F)c(Cl)c1 [Compound 21530, N-(3-chloro-4-fluorophenyl)-N-(2-fluoro-4-(5-(trifluoromethyl)-1,3,4-oxadiazol-2-yl)benzyl)thiomorpholine-4-carboxamide 1,1-dioxide] | 167 fold | 0.06 µM |
| CN1CCN(C(=O)N(Cc2ccc(-c3nnc(C(F)F)o3)cc2F)c2cccc(-c3ccoc3)c2)CC1 [Compound 21534, N-(4-(5-(difluoromethyl)-1,3,4-oxadiazol-2-yl)-2-fluorobenzyl)-N-(3-(furan-3-yl)phenyl)-4-methylpiperazine-1-carboxamide] | 175 fold | 0.057 µM |
| CN1CCN(C(=O)N(Cc2ccc(-c3nnc(C(F)F)o3)cc2F)c2cccc(-c3ccncc3)c2)CC1 [Compound 21535, N-(4-(5-(difluoromethyl)-1,3,4-oxadiazol-2-yl)-2-fluorobenzyl)-4-methyl-N-(3-(pyridin-4-yl)phenyl)piperazine-1-carboxamide] | 227 fold | 0.044 µM |
| CN1CCN(C(=O)N(Cc2ccc(-c3nnc(C(F)F)o3)cc2F)c2cccc(-c3cccnc3)c2)CC1 [Compound 21536, N-(4-(5-(difluoromethyl)-1,3,4-oxadiazol-2-yl)-2-fluorobenzyl)-4-methyl-N-(3-(pyridin-3-yl)phenyl)piperazine-1-carboxamide] | 556 fold | 0.018 µM |
| CN1CCN(C(=O)N(Cc2ccc(-c3nnc(C(F)F)o3)cc2F)c2cccc(-c3ccc4c(cnn4C)c3)c2)CC1 [Compound 21537, N-(4-(5-(difluoromethyl)-1,3,4-oxadiazol-2-yl)-2-fluorobenzyl)-4-methyl-N-(3-(1-methyl-1H-indazol-5-yl)phenyl)piperazine-1-carboxamide] | 145 fold | 0.069 µM |
| CN1CCN(C(=O)N(Cc2ccc(-c3nnc(C(F)F)o3)cc2F)c2ccc(-c3ccncc3)cc2)CC1 [Compound 21541, N-(4-(5-(difluoromethyl)-1,3,4-oxadiazol-2-yl)-2-fluorobenzyl)-4-methyl-N-(4-(pyridin-4-yl)phenyl)piperazine-1-carboxamide] | 156 fold | 0.064 µM |

The remaining molecules from weak to strong by IC50, led by results:

| HDAC6 selectivity (fold) | IC50 | Structure (SMILES) |
| --- | --- | --- |
| 18 fold | 0.565 µM | Cn1ccc2cc(-c3ccc(N(Cc4ccc(-c5nnc(C(F)(F)F)o5)cc4F)C(=O)N4CCS(=O)(=O)CC4)cc3)ccc21 [Compound 21521, N-(2-fluoro-4-(5-(trifluoromethyl)-1,3,4-oxadiazol-2-yl)benzyl)-N-(4-(1-methyl-1H-indol-5-yl)phenyl)thiomorpholine-4-carboxamide 1,1-dioxide] |
| 70 fold | 0.143 µM | CN1CCN(C(=O)N(Cc2ccc(-c3nnc(C(F)F)o3)cc2F)c2cccc(-c3ccccc3)c2)CC1 [Compound 21533, N-([1,1′-biphenyl]-3-yl)-N-(4-(5-(difluoromethyl)-1,3,4-oxadiazol-2-yl)-2-fluorobenzyl)-4-methylpiperazine-1-carboxamide] |
| 208 fold | 0.048 µM | O=C(N1CCOCC1)N(Cc1ncc(-c2nnc(C(F)F)o2)cn1)c1ccccc1 [Compound 21532, N-((5-(5-(difluoromethyl)-1,3,4-oxadiazol-2-yl)pyrimidin-2-yl)methyl)-N-phenylmorpholine-4-carboxamide] |
| 278 fold | 0.036 µM | O=C(N1CCS(=O)(=O)CC1)N(Cc1ccc(-c2nnc(C(F)F)o2)cc1F)c1cccc(OC(F)(F)F)c1 [Compound 21529, N-(4-(5-(difluoromethyl)-1,3,4-oxadiazol-2-yl)-2-fluorobenzyl)-N-(3-(trifluoromethoxy)phenyl)thiomorpholine-4-carboxamide 1,1-dioxide] |
| 286 fold | 0.035 µM | O=C(N1CCS(=O)(=O)CC1)N(Cc1ccc(-c2nnc(C(F)F)o2)cc1F)c1ccc(OC(F)(F)F)cc1 [Compound 21514, N-(4-(5-(difluoromethyl)-1,3,4-oxadiazol-2-yl)-2-fluorobenzyl)-N-(4-(trifluoromethoxy)phenyl)thiomorpholine-4-carboxamide 1,1-dioxide] |
| 333 fold | 0.03 µM | CN1CCN(C(=O)N(Cc2ccc(-c3nnc(C(F)F)o3)cc2F)c2ccc(-c3cccnc3)cc2)CC1 [Compound 21540, N-(4-(5-(difluoromethyl)-1,3,4-oxadiazol-2-yl)-2-fluorobenzyl)-4-methyl-N-(4-(pyridin-3-yl)phenyl)piperazine-1-carboxamide] |
| 400 fold | 0.025 µM | O=C(N1CCS(=O)(=O)CC1)N(Cc1ccc(-c2nnc(C(F)F)o2)cc1F)c1ccc(-c2cccnc2)cc1 [Compound 21518, N-(4-(5-(difluoromethyl)-1,3,4-oxadiazol-2-yl)-2-fluorobenzyl)-N-(4-(pyridin-3-yl)phenyl)thiomorpholine-4-carboxamide 1,1-dioxide] |
| 455 fold | 0.022 µM | O=C(N1CC2(COC2)C1)N(Cc1ccc(-c2nnc(C(F)F)o2)cc1F)c1ccccc1 [Compound 21522, N-(4-(5-(difluoromethyl)-1,3,4-oxadiazol-2-yl)-2-fluorobenzyl)-N-phenyl-2-oxa-6-azaspiro[3.3]heptane-6-carboxamide] |
| 769 fold | 0.013 µM | O=C(N1CCS(=O)(=O)CC1)N(Cc1ccc(-c2nnc(C(F)F)o2)cc1F)c1ccc(F)c(Cl)c1 [Compound 21531, N-(3-chloro-4-fluorophenyl)-N-(4-(5-(difluoromethyl)-1,3,4-oxadiazol-2-yl)-2-fluorobenzyl)thiomorpholine-4-carboxamide 1,1-dioxide] |
